The results in this text go back to patent publication US10212936B2, “Molecules having pesticidal utility, and intermediates, compositions, and processes, related thereto” (priority 2014, dated 2019).

Type in all cases: in vivo
Data set [1] deals with Green Peach Aphid (Myzus persicae, MYZUPE). Nature of the data set: Bioassay on Green Peach Aphid (GPA), foliar spray on cabbage seedlings. The conditions noted are these: 72 h, 200 ppm foliar spray on cabbage seedlings, three days, Abbott corrected % control, read-out: GPA % Control (or Mortality) rating. How it is done: Example B: Bioassays on Green Peach Aphid (Myzus persicae, MYZUPE) (“GPA”)
Certain molecules disclosed in this document were tested against GPA using procedures described in the following example. In the reporting of the results, the “GPA Rating Table” was used (See Table Section).
Cabbage seedlings grown in 3-inch pots, with 2-3 small (3-5 cm) true leaves, were used as test substrate. The seedlings were infested with 20-50 GPA (wingless adult and nymph stages) one day prior to chemical application. Four pots with individual seedlings were used for each treatment. Test molecules (2 mg) were dissolved in 2 mL of acetone/methanol (1:1) solvent, forming stock solutions of 1000 ppm test molecule. The stock solutions were diluted 5× with 0.025% Tween 20 in water to obtain the solution at 200 ppm test molecule. A hand-held aspirator-type sprayer was used for spraying a solution to both sides of […] leaves until runoff. Reference plants (solvent check) were sprayed with the diluent only containing 20% by volume of acetone/methanol (1:1) solvent. Treated plants were held in a holding room for three days at approximately 25° C. and ambient relative humidity (RH) prior to grading. Evaluation was conducted by counting the number of live aphids per plant under a microscope. Percent Control was measured by using Abbott's correction formula (W. S. Abbott, “A Method of Computing the Effectiveness of an Insecticide” J. Econ. Entomol. 18 (1925), pp. 265-267) as follows. Corrected % Control=100*(X−Y)/X • where • X=No. of live aphids on solvent check plants and • Y=No. of live aphids on treated plants
The results are indicated in the table entitled “Table ABC: Biological Results” (See Table Section).

Data set [2] relates to Yellow Fever Mosquito (Aedes aegypti, AEDSAE). Nature of the data set: Bioassay on Yellow Fever Mosquito (YFM) larvae, 96-well plate. The conditions noted are these: about 1 day-old larvae, 4000 ppm DMSO master plate diluted, graded after 3 days. Put shortly: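 Compounds from 4000 ppm DMSO master stocks, diluted in 90:10 water:acetone, dispensed into wells and infested with about 1-day-old Aedes aegypti larvae in liver-powder water. Six replicate plates, covered and held at room temperature for 3 days, then each well scored for mortality.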

For data set [3], the system named is Beet Armyworm (Spodoptera exigua, LAPHEG). Nature of the data set: Bioassay on Beet Armyworm (BAW), 128-well diet tray assay. To be noted: 168 h, 50 μg/cm^2 on artificial diet, second instar larvae, five to seven days, 25° C., read-out: BAW % Control (or Mortality) rating. An outline of the steps: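 Second instar larvae, one to five per well, placed on artificial diet treated with 50 μg/cm^2 compound (in 90:10 acetone-water) and dried; eight wells per compound. Held at 25° C, 14:10 light-dark, five to seven days. Percent mortality recorded per well and averaged.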

The subject of data set [4] is Cabbage Looper (Trichoplusia ni, TRIPNI). Briefly: Bioassay on Cabbage Looper (CL), 128-well diet tray assay. The conditions noted are these: 168 h, 50 μg/cm^2 on artificial diet, second instar larvae, five to seven days, 25° C., read-out: CL % Control (or Mortality) rating. Put shortly:
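Diet-tray test with one to five second-instar larvae per well on artificial diet treated with 50 μg/cm^2 compound (in 90:10 acetone-water), dried, eight wells per molecule. Held 25 °C, 14:10 light-dark for five to seven days; percent mortality averaged over the eight wells.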

Data set [5] concerns Corn Earworm (Helicoverpa zea, HELIZE). Briefly: Bioassay on Corn Earworm (CEW), 128-well diet tray assay. The conditions noted are these: 168 h, 50 μg/cm^2 on artificial diet, second instar larvae, five to seven days, 25° C., read-out: CEW % Control (or Mortality) rating. How it is done: Example A: Bioassays on Beet Armyworm (Spodoptera exigua, LAPHEG) (“BAW”), Corn Earworm (Helicoverpa zea, HELIZE) (“CEW”), and Cabbage Looper (Trichoplusia ni, TRIPNI) (“CL”)
Certain molecules disclosed in this document were tested against BAW, CEW, and CL using procedures described in the following examples. In the reporting of the results, the “BAW, CEW, & CL Rating Table” was used (See Table Section).
Bioassays on CEW were conducted using a 128-well diet tray assay. one to five second instar CEW larvae were placed in each well (3 mL) of the diet tray that had been previously filled with 1 mL of artificial diet to which 50 μg/cm^2 of the test molecule (dissolved in 50 μL of 90:10 acetone-water mixture) had been applied (to each of eight wells) and then allowed to dry. Trays were covered with a clear self-adhesive cover, and held at 25° C., 14:10 light-dark for five to seven days. Percent mortality was recorded for the larvae in each well; activity in the eight wells was then averaged. The results are indicated in the table entitled “Table ABC: Biological Results” (See Table Section).

For orientation: mortality means the share of the test organisms that died. For the molecule `CCc1ccccc1-n1nccc1NC(=O)Nc1ccc(-c2ncn(-c3ccc(OC(F)(F)F)cc3)n2)cc1` [F6, 1-(1-(2-Ethylphenyl)-1H-pyrazol-5-yl)-3-(4-(1-(4-(trifluoromethoxy)phenyl)-1H-1,2,4-triazol-3-yl)phenyl)urea], the mortality at 200 ppm in data set [1] amounted to 0%. In addition, in data set [2], the “YFM % Control (or Mortality) rating” value is listed as “A (80-100)”. Also, the mortality at 50 µg/cm2 in data set [3] and in data set [4] was 50 to 100% each time.

`Cc1cc(C)c(-n2nccc2NC(=O)Nc2ccc(-c3ncn(-c4ccc(OC(F)(F)F)cc4)n3)cc2)c(C)c1` [F11, 1-(1-Mesityl-1H-pyrazol-5-yl)-3-(4-(1-(4-(trifluoromethoxy)phenyl)-1H-1,2,4-triazol-3-yl)phenyl)urea]: the mortality at 200 ppm in data set [1] was 0%. Moreover, the “YFM % Control (or Mortality) rating” value in data set [2] was “A (80-100)”. In addition, the mortality at 50 µg/cm2 in data set [3] and in data set [4] was 50 to 100% throughout.

For `Cc1cc(C)c(-n2nccc2NC(=O)Nc2ccc(-c3ncn(-c4ccc(OC(F)(F)C(F)(F)F)cc4)n3)cc2)c(C)c1` [F18, 1-(1-Mesityl-1H-pyrazol-5-yl)-3-(4-(1-(4-(perfluoroethoxy)phenyl)-1H-1,2,4-triazol-3-yl)phenyl)urea], in data set [1], the mortality at 200 ppm lay in the range of 0 to 80%. The “YFM % Control (or Mortality) rating” value in data set [2] is recorded as “A (80-100)”. Also, the mortality at 50 µg/cm2 in data set [3] and in data set [4] was 50 to 100% each time.

Turning to `O=C(Nc1ccc(-c2ncn(-c3ccc(OC(F)(F)F)cc3)n2)cc1)Nc1ccnn1-c1cc(Cl)ccc1Cl` [F12, 1-(1-(2,5-Dichlorophenyl)-1H-pyrazol-5-yl)-3-(4-(1-(4-(trifluoromethoxy)phenyl)-1H-1,2,4-triazol-3-yl)phenyl)urea], the mortality at 200 ppm in data set [1] was in the range of 0 to 80%. For the same molecule, the “YFM % Control (or Mortality) rating” value in data set [2] is “A (80-100)”. Besides, the mortality at 50 µg/cm2 in data set [3] and in data set [4] was 50 to 100% throughout.

For the molecule `Cc1ccc(F)cc1-n1nccc1NC(=O)Nc1ccc(-c2ncn(-c3ccc(OC(F)(F)C(F)(F)F)cc3)n2)cc1` [F16, 1-(1-(5-Fluoro-2-methylphenyl)-1H-pyrazol-5-yl)-3-(4-(1-(4-(perfluoroethoxy)phenyl)-1H-1,2,4-triazol-3-yl)phenyl)urea], the mortality at 200 ppm in data set [1] worked out at 0%. Besides, the “YFM % Control (or Mortality) rating” value in data set [2] is “A (80-100)”. The mortality at 50 µg/cm2 in data set [3] and in data set [4] was 50 to 100% throughout.

Regarding `Cc1cc(Cl)ccc1-n1nccc1NC(=O)Nc1ccc(-c2ncn(-c3ccc(OC(F)(F)F)cc3)n2)cc1` [F3, 1-(1-(4-Chloro-2-methylphenyl)-1H-pyrazol-5-yl)-3-(4-(1-(4-(trifluoromethoxy)phenyl)-1H-1,2,4-triazol-3-yl)phenyl)urea], in data set [1], the mortality at 200 ppm was determined as 0%. Also, the “YFM % Control (or Mortality) rating” value in data set [2] is reported as “A (80-100)”. Besides, the mortality at 50 µg/cm2 in data set [3] and in data set [4] was 50 to 100% in each case.

For the molecule `COc1ccccc1-n1nccc1NC(=O)Nc1ccc(-c2ncn(-c3ccc(OC(F)(F)F)cc3)n2)cc1` [F13, 1-(1-(2-Methoxyphenyl)-1H-pyrazol-5-yl)-3-(4-(1-(4-(trifluoromethoxy)phenyl)-1H-1,2,4-triazol-3-yl)phenyl)urea], the mortality at 200 ppm in data set [1] was 0%. Moreover, the “YFM % Control (or Mortality) rating” value in data set [2] is given as “A (80-100)”. In addition, the mortality at 50 µg/cm2 in data set [3] and in data set [4] was 50 to 100% in each case.

As for `Cc1ccc(-n2nccc2NC(=O)Nc2ccc(-c3ncn(-c4ccc(OC(F)(F)C(F)(F)F)cc4)n3)cc2)c(C)c1` [F15, 1-(1-(2,4-Dimethylphenyl)-1H-pyrazol-5-yl)-3-(4-(1-(4-(perfluoroethoxy)phenyl)-1H-1,2,4-triazol-3-yl)phenyl)urea], the mortality at 200 ppm in data set [1] was 0 to 80%. In addition, the “YFM % Control (or Mortality) rating” value in data set [2] is “A (80-100)”. Moreover, the mortality at 50 µg/cm2 in data set [3] and in data set [4] was 50 to 100% in each case.

For the molecule `Cc1ccc(-n2nccc2NC(=O)Nc2ccc(-c3ncn(-c4ccc(OC(F)(F)F)cc4)n3)cc2)c(C)c1` [F9, 1-(1-(2,4-Dimethylphenyl)-1H-pyrazol-5-yl)-3-(4-(1-(4-(trifluoromethoxy)phenyl)-1H-1,2,4-triazol-3-yl)phenyl)urea], the mortality at 200 ppm in data set [1] is 0 to 80%. Further, the “YFM % Control (or Mortality) rating” value in data set [2] is reported as “A (80-100)”. The mortality at 50 µg/cm2 in data set [3] and in data set [4] was 50 to 100% in each case.

In the case of `Cc1ccc(F)cc1-n1nccc1NC(=O)Nc1ccc(-c2ncn(-c3ccc(OC(F)(F)F)cc3)n2)cc1` [F5, 1-(1-(5-Fluoro-2-methylphenyl)-1H-pyrazol-5-yl)-3-(4-(1-(4-(trifluoromethoxy)phenyl)-1H-1,2,4-triazol-3-yl)phenyl)urea], the mortality at 200 ppm in data set [1] was 0%. Also, in data set [2], the “YFM % Control (or Mortality) rating” value is reported as “A (80-100)”. For the same molecule, the mortality at 50 µg/cm2 in data set [3] and in data set [4] was 50 to 100% in each case.

Take `COc1ccccc1-n1nccc1NC(=O)Nc1ccc(-c2ncn(-c3ccc(OC(F)(F)C(F)(F)F)cc3)n2)cc1` [F19, 1-(1-(2-Methoxyphenyl)-1H-pyrazol-5-yl)-3-(4-(1-(4-(perfluoroethoxy)phenyl)-1H-1,2,4-triazol-3-yl)phenyl)urea]: the mortality at 200 ppm in data set [1] fell in the range of 0 to 80%. The “YFM % Control (or Mortality) rating” value in data set [2] is listed as “A (80-100)”. Moreover, the mortality at 50 µg/cm2 in data set [3] and in data set [4] was 50 to 100% in each case.

As for `Cc1ccc(C)c(-n2nccc2NC(=O)Nc2ccc(-c3ncn(-c4ccc(OC(F)(F)C(F)(F)F)cc4)n3)cc2)c1` [F17, 1-(1-(2,5-Dimethylphenyl)-1H-pyrazol-5-yl)-3-(4-(1-(4-(perfluoroethoxy)phenyl)-1H-1,2,4-triazol-3-yl)phenyl)urea], the mortality at 200 ppm in data set [1] was 0 to 80%. Further, in data set [2], the “YFM % Control (or Mortality) rating” value is on record as “A (80-100)”. In addition, the mortality at 50 µg/cm2 in data set [3] and in data set [4] was 50 to 100% each time.

As for `O=C(Nc1ccc(-c2ncn(-c3ccc(OC(F)(F)F)cc3)n2)cc1)Nc1ccnn1-c1c(Cl)cccc1Cl` [F4, 1-(1-(2,6-Dichlorophenyl)-1H-pyrazol-5-yl)-3-(4-(1-(4-(trifluoromethoxy)phenyl)-1H-1,2,4-triazol-3-yl)phenyl)urea], in data set [1], the mortality at 200 ppm was 0 to 80%. Moreover, the “YFM % Control (or Mortality) rating” value in data set [2] was “A (80-100)”. In addition, the mortality at 50 µg/cm2 in data set [3] and in data set [4] was 50 to 100% each time.

For the molecule `COc1ccc(-c2nonc2NC(=O)Nc2ccc(-c3ncn(-c4ccc(OC(F)(F)F)cc4)n3)cc2)cc1` [F39, 1-(4-(4-Methoxyphenyl)-1,2,5-oxadiazol-3-yl)-3-(4-(1-(4-(trifluoromethoxy)phenyl)-1H-1,2,4-triazol-3-yl)phenyl)urea], the “YFM % Control (or Mortality) rating” value in data set [2] was “D (No activity noticed in this bioassay)”. Besides, the mortality at 50 µg/cm2 lay within 50 to 100% in data set [5], 0 to 50% in data set [3] and 50 to 100% in data set [4].
